# Measurements taken from the METLIN SMRT retention time set (Domingo-Almenara et al. 2019).
# Experiment: gradient 5% acetonitrile 3 min, to 50% in 2 min, to 85% in 15 min, held 3 min, 100 µL/min
# Conditions: column: Zorbax Extend-C18 2.1 x 50 mm; eluents: water / acetonitrile, 0.1% formic acid
# Outline: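 Over 3 months, pure standards in mixtures of ~100 molecules were run by HPLC coupled to a quadrupole time-of-flight mass spectrometer in positive and negative ionization mode. The column was a Zorbax Extend-C18 (2.1 × 50 mm, 1.8 μm) at 100 μL/min, eluted with water and acetonitrile each holding 0.1% formic acid, with 40 μL dead and 900 μL dwell volumes. Retention time was determined from adduct peaks chosen by software and checked manually.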
row,SMILES,RP-LC retention time [s]
1,COc1ccc(CNC(=O)c2ccc3c(=O)n(Cc4ccccc4)c(N4CCCC4)nc3c2)cc1,956
2,COc1ccc(OC)c(CNC(=O)C2CCCN(c3ccc(=O)n(-c4ccc(C)c(Cl)c4)n3)C2)c1 (stereo unspecified),924
3,Cc1cc(C)c(S(=O)(=O)Nc2ccc(Cn3cncn3)cc2)c(C)c1,798
4,O=C(CSc1nnc(NC(=O)COc2ccc(Cl)cc2)s1)NCc1ccco1,768
5,O=C(Nc1cccc(-c2cn3cccnc3n2)c1)c1ccccc1Cl,666
6,Cc1ccc(Cl)cc1N1CCN(C(=O)c2[nH]c(C)c(S(=O)(=O)N3CCC(C)CC3)c2C)CC1,1190
7,COc1ccc(Cl)cc1NC(=O)Cn1cnc2nc3c(cc2c1=O)CCCC3,798
8,O=C(Cn1nc(N2CCOCC2)c2ccccc2c1=O)Nc1ccc(C(F)(F)F)cc1,898
9,Cc1cc(N2CCCC2)nc(N2CCN(S(=O)(=O)c3ccc4c(c3)Cc3ccccc3-4)CC2)n1,924
10,CCc1nnc2cc(N3CCN(C(=O)Nc4cccc(F)c4)CC3)cnn12,655
11,CN1C(=O)[C@H]2CN(Cc3cccc(Br)c3)C[C@H]2C1=O,608
12,O=C(COc1ccccc1)Nc1cnc(-c2cccnc2)nc1,678
13,CCc1noc2nc(CCC(=O)NCCOC)nc(N3CCCCC3)c12,724
14,O=c1ccn(-c2ccc(Cl)cc2)nc1-c1nc(-c2ccc(F)c(Br)c2)no1,1080
15,O=C(Cn1ccc2ccc(N3CCOCC3)nc21)NCc1cccc(Br)c1,918
16,O=S(=O)(c1ccc(-c2cc(C(F)(F)F)on2)s1)N1CCN(c2ccccn2)CC1,883
17,O=C(NCCN1CCCCCC1)c1ccc2c(c1)NC(=O)C1CCCCN21 (stereo unspecified),601
18,Cc1ccc(Cn2c(=O)n(CCNC(=O)C3CCC3)c3ncccc32)cc1,779
19,CC(C)c1ccc(S(=O)(=O)NCC(c2cccnc2)c2c[nH]c3ccccc23)cc1 (stereo unspecified),772
20,CN(CCNC(=O)c1ccc(-c2ccnc(N3CCCC3)n2)cc1)C1CCCCC1,611

# Further lines, results first:
row,RP-LC retention time [s],SMILES
1,816,O=C(c1ccccc1)N1CCCc2cc(NS(=O)(=O)c3ccccc3Cl)ccc21
2,687,CCOC(=O)CNC(=O)NC(C)C(=O)N1CCc2ccccc21 (stereo unspecified)
3,645,CCCCN(CCCNC(=O)C1CCN(S(=O)(=O)CC)CC1)c1ccccc1
4,994,Cc1ccc(NC(=O)CN2C(=O)C3CCCCN3c3ccc(S(=O)(=O)N(C)C)cc32)c(C)c1 (stereo unspecified)
5,610,CCN(CC)S(=O)(=O)c1ccc2c(c1)CC(C(=O)NCCN1CCCCC1)N2C(C)=O (stereo unspecified)
6,726,CCOC(=O)Cn1nc2oc(=O)c(CCN3CCN(c4ccccc4OC)CC3)c(C)c2c1C
7,1010,CCOC(=O)c1cnc2c(cnn2CC)c1NN=C(C)C
8,850,CC(CCc1ccccc1)NC(=O)Cc1csc2nc(-c3ccccc3)cn12 (stereo unspecified)
9,594,CCn1c(C)nc2c1CN(CC(=O)NCCCN1CCCc3ccccc31)CC2
10,998,CSc1ccccc1NC(=O)C(=O)NCC1CCN(C(=O)Oc2ccccc2)CC1
11,775,CCC(C)NC(=O)CC1CCN(C(=O)c2[nH]c(C)c(C(=O)OC(C)C)c2C)CC1 (stereo unspecified)
12,740,CC(NC(=O)C1CC(=O)N(c2ccc3c(c2)CCN3C(=O)C2CC2)C1)c1ccccc1 (stereo unspecified)
13,710,CNC(=O)[C@@H]1C[C@H](Oc2ccccc2)CN1C(=O)C1CC=CC1
14,557,CN1CCN(C(CNC(=O)c2ccc(Cl)cc2)c2ccc(N(C)C)cc2)CC1 (stereo unspecified)
15,676,Nc1cc(C2CCN(C(=O)c3ccccc3Br)CC2)no1
16,643,CCN1CCC2(CC1)OC(=O)C(C)=C2C(=O)NCc1ccc(Cl)cc1
